The subject of data set [1] is sclera. Put plainly: Content of collagen specific amino acids in rabbit sclera after long term treatment (HPLC). The format is in vivo. More on the design: Hydroxylysine Decr. compared to the control / Hydroxyproline Inc. compared to the control / Proline Inc. compared to the control: concentration or dose not given beside the values. The note with it: for Hydroxylysine content / Hydroxyproline content / Proline content: dried defatted weight. From the text:
(§1) Test animal: Charles River Deutschland Chinchilla Bastard female rabbits.
(§2) Number of animals: 6 test animals and 6 control animals
(§3) Age: approximately 8 weeks at the commencement of the test.
(§4) Weight: 1.4-1.9 kg at the commencement of the test.
(§5) Cages: The animals live in identical cages made of stainless steel (Scanbur), length 1 m, depth 0.52 m, height 0.5 m.
(§6) Amount of food: Increasing from 75 g per day at the commencement of the test up to 130 g after three months.
(§7) Experimental drinking water 1 contained theophyllin in a dose equivalent of 27 mg increasing to 63 mg (added as theophyllin and ethylendiamin in a dose of 33 to 77 mg) daily.
(§8) Experimental drinking water 2 contained fluoxetine (Fontex, Lilly) in a dose equivalent of 2 mg increasing to 5 mg daily.
(§9) Experimental diet 3 was added 7-methylxanthine 500 mg per kg Stanrab standard diet equivalent of a daily 7-methylxanthine dose of […] per day.
(§10) Experimental diet 4 was added theobromine (3,7-dimethylxanthine) 500 mg per kg Stanrab standard diet equivalent of a daily theobromine dose of […] per day.
(§11) Experimental diet 5 was added acetazolamide 500 mg per kg Stanrab standard diet equivalent of a daily acetazolamide dose of […] per day.
(§12) Collection of sample: Sclera biopsies are taken for analysis for proteoglycane content, distribution between the individual glycosaminoglycanes and the content of collagen specific amino acids. Four tests from each animal: Two samples from the front, 5×10 mm along limbus (without cornea), and two samples from the back, punch 10 mm corresponding to the center of the retina. Furthermore, tests are taken for electron microscopy (EM) from two animals in each group.
Samples for analysis for content of collagen specific amino acids are frozen down immediately. The amino acid content is determined by HPLC-chromatography.
The dried tissue with constant weight is minced into very fine particles with a pair of scissors, approximately 20 per piece of tissue. The small flakes from each original piece of tissue ate divided into two equally sized portions, one of which is employed for hydrolysis and the other one is kept for reference. The constant dry weight of each portion is known.
From each resolubilized hydrolysate 3 aliquots of each 8 microliters and 3 aliquots of 40 μl are taken and transferred to separate polypropylene tubes in which 20 microliters of a solution of internal standard substances citrulline and 2 aminobutyric acid were added where the further method takes place.
The taken aliquots from hydrolysate are dried in a vacuum exsiccator at 35° C. over night and subsequently submitted to derivatization with phenylisothiocyanate.
The resulting phenylisothiocarbamates are transferred to the HPLC instrument for separation and quantification. A new set of calibration curves is established, 1 curve for each of the 19 amino acids, prior to the analysis of the samples from one investigation.
The concentration range of standard samples exceed the ranges of amino acid concentrations in the unknowns. Hydroxyproline and proline are quantitated from the 8 microliter aliquots, and hydroxylysine is quantitated from the 40 microliter aliquots.

Data set [2] concerns retinal pigment epithelium. Put plainly: c-wave at ERG and standing potential of the eye. The settings on record: in vivo. From the text: Registration of c-Wave at ERG in animals (e.g. rabbits) is a well-developed examination technique (Skoog, K. O., Nilsson, S. E. G., Acta Ophthalmol. (Kph), 52: 759-773 (1974), Jarkman, S., Skoog, K. O., Doc. Ophthalmol., 60: 383-392 (1985)). Also intraoccular administration of test substances for test animals is also a well-described-technique (Textorius O., Doc. Ophthalmol., 63:349-358 (1986)). Alternatively, test substances can be administered intravenously (Jarkman, S., Doc. Ophthalmol. 60: 375-382 (1985)).

In data set [3] the test system is sclera. Kind of data set: Content of proteoglycanes in rabbit sclera after long term treatment (alcian blue method). More on the design: Proteoglycanes Decrease compared to the control, anterior sclera / Proteoglycanes Increase compared to the control, anterior sclera / Proteoglycanes Increase compared to the control, posterior sclera / Effect on proteoglycan content of posterior sclera in % compared to control: concentration or dose not given beside the values. The format is in vivo. The settings on record: for Effect on proteoglycan content of posterior sclera in % compared to control: rabbit, Examples 2 and 4; for Content of proteoglycanes, anterior sclera / Content of proteoglycanes, posterior sclera: wet weight. As to the method: as §1, §2, §3, §4
Lightness/Darkness cycle: 12/12 hours.
as §5
Food: Stanrab standard diet from Special Diet Services, P.O. Box 705, Witham Essex CM8 3AD, UK (further details, see Table A).
as §6, §7, §8
Experimental diet 2 was added 4.5 g L-cystine per kg Stanrab standard diet equivalent of a daily L-cystine dose of 338 mg increasing to 585 mg per day. With respect to the supplement of L-cystine, the normal intake per day of the standard diet is 218 mg increasing to 377 mg L-cystine.
as §9, §10, §11
Experimental diet 6 was added 4.5 g L-ornithine per kg Stanrab standard diet equivalent of a daily L-ornithine dose of 338 mg increasing to 585 mg per day.
as §12
Analyses: Samples for proteoglycane analysis are frozen down immediately. The samples are analyzed by Wieslab AB, IDEON, S-223 70 Lund, Sweden, by means of a method which has been described by Björnsson, S., Analytical Biochemistry 210, 282-291 (1993). The method comprises extraction by 20 microliters of 4 M guanidine-HCl, 50 Mm sodium acetate per mg wet weight over night by room temperatures. The extracts are centrifuged in order to remove debris. 20 microliters of supernatant are reduced 1/10 in extraction buffer and 20 microliters of reduced supernatant are mixed with 10 microliters of reagent 1 (see Björnsson, S., Analytical biochemistry 210, 282-291 (1993)) on a shaking table for 15 minutes. 200 microliters of reagent 2 are added and the tests are incubated for 60 minutes in order to precipitate the proteoglycanes. The proteoglycane/alcian blue precipitate is transferred to 96-wells MillBlotD apparatus and washed with 2×200 microliters of 40% DMSO, 0.05 M of MgCl2. The colour intensity of the wells are quantitated by microtech E3 scanner and Scan Analysis software (Biosoft, Cambridge, U.K.). Chrondroitine-6-sulphate (Sigma C4384) is used as the calibrator. All samples are analyzed in duplicate.
The results of longterm treatment with each of the 8 substances specified above are shown in Example 2 (treatment for 12 weeks) and Example 4 (treatment for 10 weeks).

Data set [4] deals with eye. The note with it: animal, abnormal postnatal growth of the eye; cited from earlier work.
Data set [5] concerns eye. The settings on record: test animals exposed to visual deprivation; cited from earlier work.
For data set [6] the following is noted: rabbits; cited from earlier work.
For data set [7] the following is noted: humans; cited from earlier work.
Data set [8] deals with T1, skeletal RyR (Oryctolagus cuniculus, UniProt P11716).
T1 construct: Structure-activity Relationship of Xanthines and Skeletal Muscle Ryanodine Receptor/Ca^2+ Release Channel; from tissue; host or cells: Skeletal muscle
The settings on record: cited from earlier work.

Data set [9] relates to sclera. Put plainly: Content of collagen specific amino acids in rabbit sclera after long term treatment (HPLC). The data set is classed as in vivo. The note with it: dried defatted weight, 10 weeks treatment (Example 4).
The mark [10] stands for this setting: anterior sclera, 3 months treatment.
[11] abbreviates: posterior sclera, 3 months treatment.
Setting [12] is: posterior sclera, 10 weeks treatment (Example 4).

Like-named read-outs stand apart in the source and are kept apart here. Marks after values point to notes of the source that are not given here.

T1 sequence (P11716 whole entry): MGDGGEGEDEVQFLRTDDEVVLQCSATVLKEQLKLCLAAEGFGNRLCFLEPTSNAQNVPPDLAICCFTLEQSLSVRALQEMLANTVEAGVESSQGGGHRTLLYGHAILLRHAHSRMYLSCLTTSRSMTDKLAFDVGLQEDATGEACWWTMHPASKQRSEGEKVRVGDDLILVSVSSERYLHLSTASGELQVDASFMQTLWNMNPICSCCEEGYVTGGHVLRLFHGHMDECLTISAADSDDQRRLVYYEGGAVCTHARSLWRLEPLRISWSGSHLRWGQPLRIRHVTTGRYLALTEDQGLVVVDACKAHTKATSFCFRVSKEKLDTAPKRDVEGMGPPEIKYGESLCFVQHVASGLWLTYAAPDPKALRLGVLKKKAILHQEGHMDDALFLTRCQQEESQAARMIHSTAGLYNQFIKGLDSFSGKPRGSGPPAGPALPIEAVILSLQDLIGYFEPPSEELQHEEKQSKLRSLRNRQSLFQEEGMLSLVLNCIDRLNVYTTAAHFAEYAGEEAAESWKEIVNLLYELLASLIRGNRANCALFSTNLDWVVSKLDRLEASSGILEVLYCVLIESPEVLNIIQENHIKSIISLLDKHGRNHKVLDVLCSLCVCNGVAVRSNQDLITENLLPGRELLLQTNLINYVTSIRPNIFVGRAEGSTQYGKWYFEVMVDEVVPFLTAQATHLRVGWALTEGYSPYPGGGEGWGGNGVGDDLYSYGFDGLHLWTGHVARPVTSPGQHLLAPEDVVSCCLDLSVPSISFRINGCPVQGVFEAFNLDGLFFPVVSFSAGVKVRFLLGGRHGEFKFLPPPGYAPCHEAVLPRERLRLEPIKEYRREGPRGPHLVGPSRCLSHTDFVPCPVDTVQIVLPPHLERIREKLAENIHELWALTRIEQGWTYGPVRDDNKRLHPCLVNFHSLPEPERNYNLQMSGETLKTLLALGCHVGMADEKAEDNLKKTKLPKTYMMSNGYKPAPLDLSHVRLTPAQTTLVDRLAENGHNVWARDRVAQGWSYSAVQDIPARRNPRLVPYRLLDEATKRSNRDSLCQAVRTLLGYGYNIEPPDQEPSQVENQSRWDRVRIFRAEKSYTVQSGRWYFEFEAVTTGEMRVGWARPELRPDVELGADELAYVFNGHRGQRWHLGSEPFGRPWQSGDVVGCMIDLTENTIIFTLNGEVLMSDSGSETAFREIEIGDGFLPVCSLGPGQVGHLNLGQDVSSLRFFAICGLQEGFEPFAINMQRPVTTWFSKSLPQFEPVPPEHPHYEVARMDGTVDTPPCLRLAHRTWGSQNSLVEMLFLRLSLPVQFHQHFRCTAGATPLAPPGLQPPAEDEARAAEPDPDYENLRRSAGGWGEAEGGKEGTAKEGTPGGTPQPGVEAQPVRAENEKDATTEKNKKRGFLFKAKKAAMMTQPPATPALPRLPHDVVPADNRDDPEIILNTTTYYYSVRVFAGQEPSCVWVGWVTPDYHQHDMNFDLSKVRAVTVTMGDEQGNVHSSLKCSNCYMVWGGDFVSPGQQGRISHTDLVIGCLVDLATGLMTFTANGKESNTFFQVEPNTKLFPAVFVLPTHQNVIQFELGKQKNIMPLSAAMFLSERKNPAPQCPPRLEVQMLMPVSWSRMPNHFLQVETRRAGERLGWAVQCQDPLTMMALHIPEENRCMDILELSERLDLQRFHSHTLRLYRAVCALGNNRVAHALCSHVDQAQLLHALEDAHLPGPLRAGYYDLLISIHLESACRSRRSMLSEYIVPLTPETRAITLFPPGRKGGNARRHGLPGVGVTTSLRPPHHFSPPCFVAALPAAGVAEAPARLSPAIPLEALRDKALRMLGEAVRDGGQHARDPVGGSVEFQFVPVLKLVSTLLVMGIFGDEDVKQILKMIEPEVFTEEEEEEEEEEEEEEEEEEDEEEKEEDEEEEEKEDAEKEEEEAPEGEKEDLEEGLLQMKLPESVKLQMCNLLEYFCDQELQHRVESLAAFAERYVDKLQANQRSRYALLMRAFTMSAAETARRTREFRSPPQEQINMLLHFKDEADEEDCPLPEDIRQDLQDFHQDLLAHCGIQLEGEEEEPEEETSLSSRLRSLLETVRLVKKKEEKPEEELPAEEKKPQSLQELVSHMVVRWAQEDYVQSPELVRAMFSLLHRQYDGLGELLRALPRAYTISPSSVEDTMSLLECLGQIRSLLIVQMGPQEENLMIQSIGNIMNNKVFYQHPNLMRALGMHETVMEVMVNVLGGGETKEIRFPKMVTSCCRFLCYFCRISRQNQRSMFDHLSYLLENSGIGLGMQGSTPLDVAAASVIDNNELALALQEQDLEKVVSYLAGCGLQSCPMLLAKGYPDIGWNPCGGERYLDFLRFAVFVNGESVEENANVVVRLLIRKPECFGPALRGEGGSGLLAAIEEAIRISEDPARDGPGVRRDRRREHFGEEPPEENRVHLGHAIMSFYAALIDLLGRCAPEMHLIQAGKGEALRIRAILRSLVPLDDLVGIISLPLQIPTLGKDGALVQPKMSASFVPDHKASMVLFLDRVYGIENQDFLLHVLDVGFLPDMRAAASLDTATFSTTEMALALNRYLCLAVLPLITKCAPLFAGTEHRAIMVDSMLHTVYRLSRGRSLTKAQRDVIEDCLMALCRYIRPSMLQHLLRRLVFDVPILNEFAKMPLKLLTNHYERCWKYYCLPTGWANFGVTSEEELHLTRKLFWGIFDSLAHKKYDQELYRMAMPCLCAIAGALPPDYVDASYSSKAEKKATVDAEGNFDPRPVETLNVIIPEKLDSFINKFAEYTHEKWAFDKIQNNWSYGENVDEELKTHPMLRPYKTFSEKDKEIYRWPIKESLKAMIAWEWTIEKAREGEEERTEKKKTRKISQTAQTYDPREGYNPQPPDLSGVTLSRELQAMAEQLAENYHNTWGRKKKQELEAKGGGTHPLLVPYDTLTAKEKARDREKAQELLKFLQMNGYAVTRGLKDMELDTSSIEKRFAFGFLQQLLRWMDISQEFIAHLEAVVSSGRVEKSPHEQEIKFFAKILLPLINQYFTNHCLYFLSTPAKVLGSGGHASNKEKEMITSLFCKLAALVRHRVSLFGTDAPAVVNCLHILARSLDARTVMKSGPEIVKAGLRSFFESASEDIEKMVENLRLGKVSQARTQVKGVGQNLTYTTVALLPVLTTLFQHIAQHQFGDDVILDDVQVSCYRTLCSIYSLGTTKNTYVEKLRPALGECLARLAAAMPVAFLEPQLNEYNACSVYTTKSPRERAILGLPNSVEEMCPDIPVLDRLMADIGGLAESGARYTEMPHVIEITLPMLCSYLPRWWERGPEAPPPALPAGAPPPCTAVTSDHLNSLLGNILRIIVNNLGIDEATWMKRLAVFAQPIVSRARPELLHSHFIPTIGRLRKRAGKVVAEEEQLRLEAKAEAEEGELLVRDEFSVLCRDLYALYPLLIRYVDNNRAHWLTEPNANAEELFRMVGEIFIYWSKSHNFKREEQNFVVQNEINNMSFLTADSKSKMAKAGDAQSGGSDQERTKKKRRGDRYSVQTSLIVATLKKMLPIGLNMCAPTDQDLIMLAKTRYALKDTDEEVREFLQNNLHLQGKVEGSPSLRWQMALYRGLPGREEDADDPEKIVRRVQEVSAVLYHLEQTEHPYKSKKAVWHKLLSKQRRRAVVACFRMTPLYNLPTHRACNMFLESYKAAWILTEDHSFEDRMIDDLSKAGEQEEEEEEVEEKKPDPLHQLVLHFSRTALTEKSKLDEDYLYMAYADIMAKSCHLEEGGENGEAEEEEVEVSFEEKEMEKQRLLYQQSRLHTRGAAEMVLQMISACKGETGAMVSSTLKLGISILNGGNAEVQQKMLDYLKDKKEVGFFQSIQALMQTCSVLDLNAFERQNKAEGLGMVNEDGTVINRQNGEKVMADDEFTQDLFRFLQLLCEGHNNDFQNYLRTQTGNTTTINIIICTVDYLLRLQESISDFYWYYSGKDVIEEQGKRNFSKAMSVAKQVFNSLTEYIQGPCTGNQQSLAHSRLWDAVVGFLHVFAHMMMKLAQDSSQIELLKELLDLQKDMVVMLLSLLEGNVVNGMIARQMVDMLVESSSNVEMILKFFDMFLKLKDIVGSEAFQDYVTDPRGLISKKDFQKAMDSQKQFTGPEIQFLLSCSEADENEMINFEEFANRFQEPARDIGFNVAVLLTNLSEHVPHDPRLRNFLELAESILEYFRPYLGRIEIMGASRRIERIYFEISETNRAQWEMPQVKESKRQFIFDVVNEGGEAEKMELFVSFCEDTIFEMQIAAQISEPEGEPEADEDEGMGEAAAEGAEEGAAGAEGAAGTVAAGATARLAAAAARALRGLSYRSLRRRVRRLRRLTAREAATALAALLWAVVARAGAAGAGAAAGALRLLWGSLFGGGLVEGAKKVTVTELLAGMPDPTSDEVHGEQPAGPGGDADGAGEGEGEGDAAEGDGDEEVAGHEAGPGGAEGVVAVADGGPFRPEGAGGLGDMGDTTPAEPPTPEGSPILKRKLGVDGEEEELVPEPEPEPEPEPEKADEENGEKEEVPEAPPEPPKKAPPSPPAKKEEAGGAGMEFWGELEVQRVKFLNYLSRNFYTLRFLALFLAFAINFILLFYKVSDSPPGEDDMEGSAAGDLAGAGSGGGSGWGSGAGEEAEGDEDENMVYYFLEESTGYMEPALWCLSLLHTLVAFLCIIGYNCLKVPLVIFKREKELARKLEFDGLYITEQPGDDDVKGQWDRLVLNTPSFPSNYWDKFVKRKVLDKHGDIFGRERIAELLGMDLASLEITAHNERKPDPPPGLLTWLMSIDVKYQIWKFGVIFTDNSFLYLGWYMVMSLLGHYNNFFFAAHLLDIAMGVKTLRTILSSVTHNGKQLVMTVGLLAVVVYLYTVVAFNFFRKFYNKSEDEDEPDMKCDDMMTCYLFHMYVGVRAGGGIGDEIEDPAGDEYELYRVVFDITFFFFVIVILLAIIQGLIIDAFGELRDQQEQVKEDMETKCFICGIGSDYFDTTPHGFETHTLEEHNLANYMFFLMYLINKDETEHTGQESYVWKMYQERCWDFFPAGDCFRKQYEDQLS

For the molecule `Cn1c(=O)c2[nH]cnc2n(C)c1=O` [Theophylline, 1,3-Dimethylxanthine], in [1] (comment to the examples), the “content of hydroxylysine (in words)” value was “reduces”; the “content of the collagen specific amino acids hydroxyproline and proline (in words)” value is “increase”. In [2], the “c-wave at ERG” value was “reduces” and the “standing potential of the eye” value was “reduces”. Also, in data set [3] (comment to the examples), the “content of proteoglycanes in sclera (in words)” value is “reduces”. For the same molecule, the “Effect on proteoglycan content of posterior sclera in % compared to control” value in data set [3] turned out to be 100%.
On to `CN1CCN(CC(=O)N2c3ccccc3C(=O)Nc3cccnc32)CC1` [pirenzepine], for which the axial longitudinal growth result in [4] is given as “inhibited”.
Regarding `CN1CCc2cccc3c2[C@H]1Cc1ccc(O)c(O)c1-3` [apomorphine], the development of myopia result in [5] is reported as “inhibits”.
In the case of `Cn1c(=O)c2c(ncn2C)n(C)c1=O` [Caffeine, 1,3,7-Trimethylxanthine], the half-life period entry in [6] is “approximately 1 hour”. Also, in data set [1] (setting [10]), the “Hydroxyproline Inc. compared to the control” value is 14%, the “Proline Inc. compared to the control” value is 12%, the Hydroxylysine content is 39 +/− 19 nanomol/mg tissue and the Hydroxyproline content is recorded as 688 +/− 36* nanomol/mg tissue. Further, in data set [1] (setting [10]), the Proline content is given as 993 +/− 18* nanomol/mg tissue. Moreover, in data set [1] (setting [11]), the “Hydroxylysine Decr. compared to the control” value is given as 14%, the “Hydroxyproline Inc. compared to the control” value was found to be 22%, the “Proline Inc. compared to the control” value came to 17% and the Hydroxylysine content is 37 +/− 16 nanomol/mg tissue. For the same molecule, in [1] (setting [11]), the Hydroxyproline content is reported as 668 +/− 61 nanomol/mg tissue and the Proline content is reported as 947 +/− 38 nanomol/mg tissue. Also, the half-life period entry in [7] is given as “approximately 5 hours”. In data set [3] (3 months treatment), the “Proteoglycanes Increase compared to the control, anterior sclera” value is listed as 19%; the “Proteoglycanes Increase compared to the control, posterior sclera” value is on record as 19%; the “Content of proteoglycanes, anterior sclera” value is on record as 3.2 +/− 0.8 μg PG/mg tissue; the “Content of proteoglycanes, posterior sclera” value was 3.2 +/− 0.5 μg PG/mg tissue. Besides, in data set [3], the “Effect on proteoglycan content of posterior sclera in % compared to control” value is reported as 119%.
Turning to `Cn1cnc2c1c(=O)[nH]c(=O)n2C` [Theobromine, 3,7-Dimethylxanthine], the “Effect on [3H ryanodine binding in % compared to control” value in data set [8] (values of Table 3 without AMP/AMPPCP, caffeine represented by 1,7-dimethylxanthine) is listed as 124%. The “Bound [3H]ryanodine % of control” value in [8] (xanthine […], 1 mmol/l AMPPCP, control (-xanthine) = 100) was 160 ± 22 % of control. Also, the “Bound [3H]ryanodine pmol/mg protein” value in data set [8] (xanthine […], 1 mmol/l AMPPCP, means±SD of 3-4 experiments) is 2.70 ± 0.37 pmol/mg protein. Besides, the “Bound [3H]ryanodine, % of control, +1 mmol/l AMPPCP” value in [8] (xanthine […], +1 mmol/l AMPPCP, control (-xanthine) = 100) is given as 160 ± 22 % of control. In addition, the “Bound [3H]ryanodine, % of control, +3 mmol/l AMP” value in [8] (xanthine […], +3 mmol/l AMP, control (-xanthine) = 100) is listed as 136 ± 8 % of control. Moreover, the “content of all collagen specific amino acids, except hydroxylysine in anterior sclera (in words)” value in [1] (all sclera samples, Example 4, versus control) is reported as “Significant higher content”. In data set [1] (setting [12]), the “Hydroxylysine Inc.” value was found to be 20%, the “Hydroxyproline Inc.” value is listed as 19% and the “Proline Inc.” value was found to be 20%. Further, in [9] (anterior sclera), the Hydroxylysine content was 49 +/− 6 nanomol/mg tissue, the Hydroxyproline content is on record as 751 +/− 53* nanomol/mg tissue and the Proline content is recorded as 1073 +/− 78* nanomol/mg tissue. In addition, in data set [9] (posterior sclera), the Hydroxylysine content was 49 +/− 4* nanomol/mg tissue, the Hydroxyproline content is 741 +/− 18* nanomol/mg tissue and the Proline content is given as 1029 +/− 45* nanomol/mg tissue. In [3] (10 weeks treatment (Example 4)), the “Proteoglycanes Decrease, anterior sclera” value was 10%; the “Proteoglycanes Decrease, posterior sclera” value was 14%; the “Content of proteoglycanes, anterior sclera” value is on record as 2.6 +/− 0.7 μg PG/mg tissue; the “Content of proteoglycanes, posterior sclera” value is given as 2.5 +/− 0.4 μg PG/mg tissue. Moreover, in data set [3] (Example 4, versus control), the “content of proteoglycans in posterior sclera (in words)” value is “decrease”. For the same molecule, the “Effect on proteoglycan content of posterior sclera in % compared to control” value in data set [3] is recorded as 86%.

The values above are taken from patent US6710051B1, “Screening method” (Klaus Trier APS, priority 1997, dated 2004).
